Measurements taken from patent publication US20060281806A1, “Treatment and inhibition of disease conditions using flexible heteroarotinoids” (priority 2005, published 2006).

Tests used:
[1] = tested on: CC-1 human cervical cell line; assay: In vitro cytotoxicity (SRB growth inhibition) assay, CC-1; format: cell-based; set-up: dose or concentration left out as unconfirmed; conditions: 72 h
Description: (§1) The SHetA2, SHetA3, SHetA4, SHet50 and 9-cis-RA compounds were evaluated in 4 cervical carcinoma cell lines. The SiHa, CC-1 and C33a human cervical cell lines were maintained in Minimal Essential Media (MEM) containing Earle's salts and L-glutamine supplemented with nonessential amino acids, 1% sodium pyruvate, 10% fetal bovine serum (FBS) and antibiotic/antimycotic. The HT-3 cervical carcinoma cell line was cultured in McCoy's 5a medium supplemented with 10% FBS and antibiotic/antimycotic. Cells were inoculated into 96 well microtiter plates at densities of 1000 cells/well and incubated for 24 h prior to addition of drugs. Drugs were dissolved in dimethyl sulfoxide (DMSO) and diluted in complete medium, prior to addition to triplicate culture wells to achieve final concentrations of […]. Following drug addition, the plates were incubated for 72 h. The assay was terminated by the addition of cold TCA and the cells were stained with 0.4% sulforhodamine B (SRB) in 1% acetic acid. Bound stain was subsequently solubilized with 10 mM trizma base, and the absorbance was read on an automated plate reader at a wavelength of 560 nm. Growth inhibition was determined by dividing the average Optical Density (OD) of the triplicated treated cultures by the average OD of the triplicate control cultures treated with DMSO solvent only. This ratio was converted into a percentage by multiplying by 100. The potency (concentration required to induce half of the maximal activity—GI50) were derived from dose-response graphs generated with results from 3 to 5 individual experiments using GraphPad Software.

[2] = tested on: C33a human cervical cell line; assay: In vitro cytotoxicity (SRB growth inhibition) assay, C33a; format: cell-based; set-up: dose or concentration left out as unconfirmed; conditions: 72 h
Description: as §1

[3] = tested on: organotypic cultures of normal endometrial cells treated with DMBA; assay: Chemoprevention in DMBA-treated organotypic cultures of normal endometrial cells; format: cell-based; conditions: histology and karyometric analysis
Text: Untreated: The specimen is cellular with both surface and mid-gel cells presence in abundance. Two cell types are clearly present. One appears to be stromal. The nuclei are thin and spindle shaped and the cytoplasm is similar. When cut in cross-section the nuclei are very small and round and hyperchromatic. The other cells have large, oval to almost boxcar nuclei with small nucleoli and abundant cytoplasm. Numerous mitosis are present. The epithelial cells are almost syncitial in nature and appear to cling to one another. With DMBA Carcinogen: The specimen is cellular. The cells present have lost their cytoplasm. There is more pleomorphism of the cells and many are very hyperchromatic. Mitoses are very numerous-approximately 2× the number in untreated. Cells no longer are together but are distinct one from another. Stromal cells intermix with the epithelial cells. […]
FIG. 19 illustrates a typical experiment in which organotypic cultures of normal endometrial cells were treated with a carcinogen called DMBA and developed the cancer phenotype. […] All segmented nuclei were then subjected to texture feature extraction using TICAS software, resulting in 95 textrue features for each nucleus that were subjected to quantitative analysis.

[4] = tested on: C6 glioma cells injected into the brains of rats; assay: Rat glioma (brain cancer) model, MRI; format: in vivo; conditions: Monday, Wednesday and Friday
Description: FIG. 9. SHetA2 inhibition of Angiogenesis. C6 glioma cells were injected into the brains of 2 rats. One week later, one rat was gavaged with 60 mg/kg/day SHetA2 on each Monday, Wednesday and Friday. Blood vessels were imaged by MRI.
FIG. 10. […] C6 glioma cells were injected into the brains of 2 rats. One week later, one rat was gavaged with 60 mg/kg/day SHetA2 on each Monday, Wednesday and Friday. The blood flow was measured by MRI imaging.
FIG. 11. SHetA2 inhibition of glioma tumor growth. C6 glioma cells were injected into the brains of 2 rats. One week later, one rat was gavaged with 60 mg/kg/day SHetA2 on each Monday, Wednesday and Friday. The tumor size was measured by MRI imaging.
In this in vivo model, glioma cells are injected into the brains of rats and the growth of the tumor and development of blood vessels in the tumor is measured by magnetic resonance imaging (MRI).

NF-κB = NF-κB luciferase reporter assay in A2780 cultures; format: cell-based; conditions: 10 μM SHetA2, inhibition increased over 4 hours
Description: FIG. 15. SHetA2 Inhibition of NF-κB. A2780 cultures were transfected with the NF-κB reporter and treated with 10 μM SHetA2 for the indicated times. Cell lysates were prepared and evaluated for luciferase activity which was normalized for protein concentration.
Because both TP and TSP4 have DNA binding sites for the NFκB transcription factor in their promoter, the ability of SHetA2 to inhibit activity of NF-κB in ovarian cancer cultures was tested using a luciferase reporter plasmid driven by NF-κB sites in the promoter. […] Inhibition increased over the 4 hour evaluation time (FIG. 15).

[5] = RAID pharmacokinetic studies (35); cited from earlier work
[6] = oral 60 mg/kg/day, versus untreated control

With `CC1(C)CC(C)(C)c2cc(NC(=S)Nc3ccc([N+](=O)[O-])cc3)ccc2S1` [SHetA2] the “Efficacy: percent growth inhibition relative to the untreated control” value [1] was 58%, the “Efficacy: percent growth inhibition relative to the untreated control” value [2] was 87% and the “development of the DMBA-induced cancer phenotype” value [3] was “prevented the development of this phenotype”. The “blood flow (MRI)” value ([4]; gavage 60 mg/kg/day) was “inhibition of blood flow”, the “angiogenesis of glioma tumors (MRI)” value [4, 6] was “inhibited” and the “growth of glioma tumors (MRI)” value [4, 6] was “inhibited”. For the same molecule, the “time to inhibition of NF-κB reporter activity” value (NF-κB) was at most 30 min and the “concentrations achieved and maintained in mice” value [5] was “micromolar concentrations”.
